Test results: ChEMBL document CHEMBL1158979, “Ryanodyl 3-(pyridine-3-carboxylate): a novel ryanoid from Ryania insecticide” (J Nat Prod, 1991)
Calls of active or inactive are those of the source. No cut-off for these calls is given here.

Legend:
Musca domestica = experiment: Insecticidal activity against Musca domestica in presence of piperonyl butoxide applied topically; assay type: functional, organism-based
Tribolium castaneum = experiment: Insecticidal activity against Tribolium castaneum first instar larvae; assay type: functional, organism-based
Mus musculus = experiment: Toxicity in ip dosed mouse; assay type: organism-based; settings: in vivo
[1] = target: Ryanodine receptor 1 (Oryctolagus cuniculus) (UniProt P11716); experiment: Displacement of [3H]ryanodine from Ca2+- ryanodine 1 receptor complex in rabbit skeletal muscle
Ryanodine receptor 1 (Oryctolagus cuniculus), sequence (P11716 whole entry): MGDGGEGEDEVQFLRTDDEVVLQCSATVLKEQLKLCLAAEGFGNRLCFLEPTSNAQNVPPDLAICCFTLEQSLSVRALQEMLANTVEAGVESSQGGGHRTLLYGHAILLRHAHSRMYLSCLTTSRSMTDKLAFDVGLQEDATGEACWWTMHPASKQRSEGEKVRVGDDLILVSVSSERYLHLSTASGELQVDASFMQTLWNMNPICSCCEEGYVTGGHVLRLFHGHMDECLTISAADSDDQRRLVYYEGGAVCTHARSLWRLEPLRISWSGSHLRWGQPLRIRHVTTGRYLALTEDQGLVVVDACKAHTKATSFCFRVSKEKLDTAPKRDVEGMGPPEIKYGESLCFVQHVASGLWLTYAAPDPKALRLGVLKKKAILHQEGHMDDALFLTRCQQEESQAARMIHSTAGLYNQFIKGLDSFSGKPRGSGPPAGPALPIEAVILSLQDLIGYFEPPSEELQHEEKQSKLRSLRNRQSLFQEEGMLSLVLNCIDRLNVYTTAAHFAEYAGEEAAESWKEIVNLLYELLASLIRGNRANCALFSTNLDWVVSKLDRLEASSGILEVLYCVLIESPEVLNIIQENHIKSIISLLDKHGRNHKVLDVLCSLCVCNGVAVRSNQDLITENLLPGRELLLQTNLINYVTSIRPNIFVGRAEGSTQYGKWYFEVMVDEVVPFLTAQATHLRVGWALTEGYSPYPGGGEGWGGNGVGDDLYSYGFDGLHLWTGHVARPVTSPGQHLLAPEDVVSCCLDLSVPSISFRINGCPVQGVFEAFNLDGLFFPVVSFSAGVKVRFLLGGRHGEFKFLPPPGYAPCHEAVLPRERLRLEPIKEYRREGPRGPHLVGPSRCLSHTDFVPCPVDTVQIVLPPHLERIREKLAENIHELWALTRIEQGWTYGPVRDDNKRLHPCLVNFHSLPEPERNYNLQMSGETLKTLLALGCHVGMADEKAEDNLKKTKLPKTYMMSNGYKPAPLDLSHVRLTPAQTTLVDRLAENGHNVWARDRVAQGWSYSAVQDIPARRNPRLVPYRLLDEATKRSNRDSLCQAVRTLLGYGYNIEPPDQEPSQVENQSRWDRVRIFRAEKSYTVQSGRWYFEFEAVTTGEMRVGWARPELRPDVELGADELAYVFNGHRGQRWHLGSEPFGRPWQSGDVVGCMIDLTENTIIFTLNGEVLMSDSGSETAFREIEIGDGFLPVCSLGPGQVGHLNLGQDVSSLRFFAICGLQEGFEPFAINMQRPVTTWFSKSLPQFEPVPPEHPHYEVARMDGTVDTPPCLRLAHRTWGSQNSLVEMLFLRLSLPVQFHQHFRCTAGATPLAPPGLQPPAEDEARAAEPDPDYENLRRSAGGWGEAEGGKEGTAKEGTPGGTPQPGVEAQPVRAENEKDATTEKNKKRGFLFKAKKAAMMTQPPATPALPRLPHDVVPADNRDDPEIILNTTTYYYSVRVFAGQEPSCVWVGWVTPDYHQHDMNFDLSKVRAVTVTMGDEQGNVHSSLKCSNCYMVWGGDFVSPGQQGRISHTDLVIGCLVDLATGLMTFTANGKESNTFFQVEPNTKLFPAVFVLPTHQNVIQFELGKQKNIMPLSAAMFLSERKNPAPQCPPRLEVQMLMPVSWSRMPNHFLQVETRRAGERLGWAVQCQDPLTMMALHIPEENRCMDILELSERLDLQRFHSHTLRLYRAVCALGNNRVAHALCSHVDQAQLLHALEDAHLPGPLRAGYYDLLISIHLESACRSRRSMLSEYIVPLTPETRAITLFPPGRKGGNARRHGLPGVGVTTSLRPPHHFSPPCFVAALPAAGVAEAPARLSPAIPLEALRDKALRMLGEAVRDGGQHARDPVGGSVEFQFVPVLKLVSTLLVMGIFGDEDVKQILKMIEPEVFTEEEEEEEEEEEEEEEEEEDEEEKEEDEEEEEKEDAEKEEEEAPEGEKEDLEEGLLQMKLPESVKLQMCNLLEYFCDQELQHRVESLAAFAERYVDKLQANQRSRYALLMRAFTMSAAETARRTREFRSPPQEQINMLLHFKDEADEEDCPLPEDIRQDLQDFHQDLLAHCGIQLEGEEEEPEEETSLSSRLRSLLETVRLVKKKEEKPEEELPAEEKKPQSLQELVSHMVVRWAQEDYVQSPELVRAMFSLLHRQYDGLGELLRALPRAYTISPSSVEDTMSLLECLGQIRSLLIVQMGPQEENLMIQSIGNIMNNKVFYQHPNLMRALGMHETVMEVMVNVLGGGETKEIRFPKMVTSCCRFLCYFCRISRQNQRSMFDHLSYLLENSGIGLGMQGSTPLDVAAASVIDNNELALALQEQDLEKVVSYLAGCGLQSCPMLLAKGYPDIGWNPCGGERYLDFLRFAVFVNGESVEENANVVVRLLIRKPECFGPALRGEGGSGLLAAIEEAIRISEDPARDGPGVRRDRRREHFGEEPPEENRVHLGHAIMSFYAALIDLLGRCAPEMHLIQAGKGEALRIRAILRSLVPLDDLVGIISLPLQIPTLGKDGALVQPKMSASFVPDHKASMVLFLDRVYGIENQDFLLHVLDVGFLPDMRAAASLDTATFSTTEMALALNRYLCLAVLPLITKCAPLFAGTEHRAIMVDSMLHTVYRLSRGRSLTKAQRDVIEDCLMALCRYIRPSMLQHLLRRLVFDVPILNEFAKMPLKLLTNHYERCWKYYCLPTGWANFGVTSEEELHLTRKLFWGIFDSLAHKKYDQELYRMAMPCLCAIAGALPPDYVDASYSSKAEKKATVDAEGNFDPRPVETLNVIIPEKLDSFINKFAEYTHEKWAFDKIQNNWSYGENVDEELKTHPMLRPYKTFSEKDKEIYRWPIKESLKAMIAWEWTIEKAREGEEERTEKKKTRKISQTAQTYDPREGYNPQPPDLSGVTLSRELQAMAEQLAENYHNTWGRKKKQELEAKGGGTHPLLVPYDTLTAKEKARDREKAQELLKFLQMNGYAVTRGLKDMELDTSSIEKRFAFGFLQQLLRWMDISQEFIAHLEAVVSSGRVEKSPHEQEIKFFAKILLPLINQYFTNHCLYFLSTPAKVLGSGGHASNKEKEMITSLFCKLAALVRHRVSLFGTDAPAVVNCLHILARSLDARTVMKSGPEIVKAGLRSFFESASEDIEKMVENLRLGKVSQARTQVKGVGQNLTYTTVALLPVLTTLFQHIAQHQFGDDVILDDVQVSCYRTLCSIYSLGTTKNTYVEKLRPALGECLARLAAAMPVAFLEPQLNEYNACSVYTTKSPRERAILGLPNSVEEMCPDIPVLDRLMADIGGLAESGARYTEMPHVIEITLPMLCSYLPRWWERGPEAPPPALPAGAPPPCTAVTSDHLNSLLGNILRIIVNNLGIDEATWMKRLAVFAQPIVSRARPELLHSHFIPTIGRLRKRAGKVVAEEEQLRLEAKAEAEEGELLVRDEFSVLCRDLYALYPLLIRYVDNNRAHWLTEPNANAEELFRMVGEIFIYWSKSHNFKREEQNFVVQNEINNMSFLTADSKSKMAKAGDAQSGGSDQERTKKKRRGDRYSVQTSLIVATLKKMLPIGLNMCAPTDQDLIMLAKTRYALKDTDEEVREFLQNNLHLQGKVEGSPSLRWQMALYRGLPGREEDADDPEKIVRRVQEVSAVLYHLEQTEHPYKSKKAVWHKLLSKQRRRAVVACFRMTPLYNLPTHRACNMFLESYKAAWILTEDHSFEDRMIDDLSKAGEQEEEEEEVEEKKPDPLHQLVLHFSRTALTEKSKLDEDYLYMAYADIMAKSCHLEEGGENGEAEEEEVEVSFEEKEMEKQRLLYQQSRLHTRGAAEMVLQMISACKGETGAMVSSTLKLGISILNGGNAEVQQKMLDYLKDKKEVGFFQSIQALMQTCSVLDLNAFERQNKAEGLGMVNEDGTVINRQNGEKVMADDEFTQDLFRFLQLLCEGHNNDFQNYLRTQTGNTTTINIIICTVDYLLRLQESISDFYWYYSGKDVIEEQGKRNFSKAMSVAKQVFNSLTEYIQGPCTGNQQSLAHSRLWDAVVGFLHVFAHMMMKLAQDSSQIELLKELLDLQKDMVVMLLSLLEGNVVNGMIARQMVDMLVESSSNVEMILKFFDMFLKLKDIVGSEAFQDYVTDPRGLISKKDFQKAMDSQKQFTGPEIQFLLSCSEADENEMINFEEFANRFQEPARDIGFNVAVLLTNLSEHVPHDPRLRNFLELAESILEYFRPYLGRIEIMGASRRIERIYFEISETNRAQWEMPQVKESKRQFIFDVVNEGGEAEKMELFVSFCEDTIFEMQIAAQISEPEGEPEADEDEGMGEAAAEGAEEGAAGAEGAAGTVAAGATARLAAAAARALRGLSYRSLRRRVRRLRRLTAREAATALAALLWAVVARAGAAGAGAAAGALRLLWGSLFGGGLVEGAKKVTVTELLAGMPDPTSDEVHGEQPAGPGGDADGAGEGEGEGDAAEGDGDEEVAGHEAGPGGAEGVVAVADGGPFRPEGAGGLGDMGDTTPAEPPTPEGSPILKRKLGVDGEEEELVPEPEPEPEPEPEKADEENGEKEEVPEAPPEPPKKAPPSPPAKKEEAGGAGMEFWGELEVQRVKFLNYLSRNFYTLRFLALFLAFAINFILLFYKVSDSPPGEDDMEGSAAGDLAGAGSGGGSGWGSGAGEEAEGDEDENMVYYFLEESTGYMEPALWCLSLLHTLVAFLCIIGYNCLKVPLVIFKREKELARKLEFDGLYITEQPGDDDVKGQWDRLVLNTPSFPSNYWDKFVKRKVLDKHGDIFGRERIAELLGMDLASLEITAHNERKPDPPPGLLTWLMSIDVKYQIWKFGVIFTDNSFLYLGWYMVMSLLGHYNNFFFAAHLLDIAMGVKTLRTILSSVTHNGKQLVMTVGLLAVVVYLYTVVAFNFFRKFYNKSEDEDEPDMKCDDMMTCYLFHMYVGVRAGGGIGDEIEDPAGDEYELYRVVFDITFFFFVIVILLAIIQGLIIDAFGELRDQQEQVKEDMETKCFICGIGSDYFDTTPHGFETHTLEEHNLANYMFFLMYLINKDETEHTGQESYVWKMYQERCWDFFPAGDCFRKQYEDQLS

Structure (SMILES)	Activity (Musca domestica)	Activity (Tribolium castaneum)	Activity (Mus musculus)	Activity [1]
CC(C)[C@@]1(O)[C@@H](OC(=O)c2cc[nH]c2)[C@@]2(O)[C@]3(C)C[C@@]4(O)O[C@@]5([C@H](O)[C@@H](C)CC[C@]35O)[C@@]2(O)[C@@]41C	Active	Active	–	–
CC(C)[C@@]1(O)[C@@H](OC(=O)c2cccnc2)[C@@]2(O)[C@]3(C)C[C@@]4(O)O[C@@]5([C@H](O)[C@@H](C)CC[C@]35O)[C@@]2(O)[C@@]41C	inactive	inactive	Not Active	inactive
CC(C)[C@@]1(O)[C@@H](OC(=O)c2ccc[nH]2)[C@@]2(O)[C@@]3(C)C[C@]4(O)O[C@@]5([C@H](O)[C@@H](C)CC[C@]35O)[C@@]2(O)[C@@]14C [RYANODINE]	–	–	Active	–
